Read-outs that look alike come from different tables or passages of the source.
Tests used:
HeLa cells = test: Proliferation assay HeLa (crystal violet)
Description: (§1) After 24 hours, the cells of one plate (zero plate) were dyed with crystal violet (see below), whereas the medium of the other plates was replaced with fresh culture medium (200 μl) to which the test substances were added in various concentrations (0 μM, and also in the range of 0.001-10 μM; the final concentration of the solvent dimethyl sulphoxide was 0.1 or 0.5%). The cells were incubated for 4 days in the presence of the test substances. […] After washing the fixed cells three times with water, the plates were dried at room temperature. The cells were stained by adding 100 μl/measurement point of a 0.1% strength crystal violet solution (pH adjusted to pH 3 by adding acetic acid). After washing the cells three times with water, the plates were dried at room temperature. The dye was dissolved by adding 100 μl/measurement point of a 10% strength acetic acid solution. […] The percentage change in cell growth was calculated by normalizing the measured values to the absorbance values of the zero plate (=0%) and the absorbance of the untreated (0 μM) cells (=100%). The IC50 values were determined by means of a four parameter fit.

NCI-H460 cells = test: Proliferation assay NCI-H460 (crystal violet); conditions: read-out: Inhibition of NCI-H460 cell proliferation, 4 days incubation
Description: as §1

[1] = target: full-length human ATR protein (Homo sapiens (Human), UniProt Q13535); test: Binding assay ATR (TR-FRET tracer displacement); conditions: TR-FRET
How it was run: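 Full-length human GST-ATR co-purified with ATRIP, pre-complexed 30 min at 22 °C with anti-GST-Tb antibody, then pre-bound with compound 10 min. Tracer A or B added (2 µl of 100 nM solution), 30 min at 22 °C.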

B16F10 cells = test: Proliferation assay B16F10 (crystal violet); conditions: read-out: Inhibition of B16F10 cell proliferation, 4 days incubation
Description: as §1

DU145 cells = test: Proliferation assay DU145 (crystal violet); conditions: read-out: Inhibition of DU145 cell proliferation, 4 days incubation
Description: as §1

Caco-2 cells = test: Proliferation assay Caco-2 (crystal violet); assay type: cell-based, human; conditions: 4 days incubation, read-out: Inhibition of Caco-2 cell proliferation
Description: as §1

[2] = tracer A, read-out: ATR binding (tracer A) IC50
[3] = tracer B, read-out: ATR binding (tracer B) IC50

Chain of full-length human ATR protein (Q13535 other isoform, or with tags, fused parts or gaps): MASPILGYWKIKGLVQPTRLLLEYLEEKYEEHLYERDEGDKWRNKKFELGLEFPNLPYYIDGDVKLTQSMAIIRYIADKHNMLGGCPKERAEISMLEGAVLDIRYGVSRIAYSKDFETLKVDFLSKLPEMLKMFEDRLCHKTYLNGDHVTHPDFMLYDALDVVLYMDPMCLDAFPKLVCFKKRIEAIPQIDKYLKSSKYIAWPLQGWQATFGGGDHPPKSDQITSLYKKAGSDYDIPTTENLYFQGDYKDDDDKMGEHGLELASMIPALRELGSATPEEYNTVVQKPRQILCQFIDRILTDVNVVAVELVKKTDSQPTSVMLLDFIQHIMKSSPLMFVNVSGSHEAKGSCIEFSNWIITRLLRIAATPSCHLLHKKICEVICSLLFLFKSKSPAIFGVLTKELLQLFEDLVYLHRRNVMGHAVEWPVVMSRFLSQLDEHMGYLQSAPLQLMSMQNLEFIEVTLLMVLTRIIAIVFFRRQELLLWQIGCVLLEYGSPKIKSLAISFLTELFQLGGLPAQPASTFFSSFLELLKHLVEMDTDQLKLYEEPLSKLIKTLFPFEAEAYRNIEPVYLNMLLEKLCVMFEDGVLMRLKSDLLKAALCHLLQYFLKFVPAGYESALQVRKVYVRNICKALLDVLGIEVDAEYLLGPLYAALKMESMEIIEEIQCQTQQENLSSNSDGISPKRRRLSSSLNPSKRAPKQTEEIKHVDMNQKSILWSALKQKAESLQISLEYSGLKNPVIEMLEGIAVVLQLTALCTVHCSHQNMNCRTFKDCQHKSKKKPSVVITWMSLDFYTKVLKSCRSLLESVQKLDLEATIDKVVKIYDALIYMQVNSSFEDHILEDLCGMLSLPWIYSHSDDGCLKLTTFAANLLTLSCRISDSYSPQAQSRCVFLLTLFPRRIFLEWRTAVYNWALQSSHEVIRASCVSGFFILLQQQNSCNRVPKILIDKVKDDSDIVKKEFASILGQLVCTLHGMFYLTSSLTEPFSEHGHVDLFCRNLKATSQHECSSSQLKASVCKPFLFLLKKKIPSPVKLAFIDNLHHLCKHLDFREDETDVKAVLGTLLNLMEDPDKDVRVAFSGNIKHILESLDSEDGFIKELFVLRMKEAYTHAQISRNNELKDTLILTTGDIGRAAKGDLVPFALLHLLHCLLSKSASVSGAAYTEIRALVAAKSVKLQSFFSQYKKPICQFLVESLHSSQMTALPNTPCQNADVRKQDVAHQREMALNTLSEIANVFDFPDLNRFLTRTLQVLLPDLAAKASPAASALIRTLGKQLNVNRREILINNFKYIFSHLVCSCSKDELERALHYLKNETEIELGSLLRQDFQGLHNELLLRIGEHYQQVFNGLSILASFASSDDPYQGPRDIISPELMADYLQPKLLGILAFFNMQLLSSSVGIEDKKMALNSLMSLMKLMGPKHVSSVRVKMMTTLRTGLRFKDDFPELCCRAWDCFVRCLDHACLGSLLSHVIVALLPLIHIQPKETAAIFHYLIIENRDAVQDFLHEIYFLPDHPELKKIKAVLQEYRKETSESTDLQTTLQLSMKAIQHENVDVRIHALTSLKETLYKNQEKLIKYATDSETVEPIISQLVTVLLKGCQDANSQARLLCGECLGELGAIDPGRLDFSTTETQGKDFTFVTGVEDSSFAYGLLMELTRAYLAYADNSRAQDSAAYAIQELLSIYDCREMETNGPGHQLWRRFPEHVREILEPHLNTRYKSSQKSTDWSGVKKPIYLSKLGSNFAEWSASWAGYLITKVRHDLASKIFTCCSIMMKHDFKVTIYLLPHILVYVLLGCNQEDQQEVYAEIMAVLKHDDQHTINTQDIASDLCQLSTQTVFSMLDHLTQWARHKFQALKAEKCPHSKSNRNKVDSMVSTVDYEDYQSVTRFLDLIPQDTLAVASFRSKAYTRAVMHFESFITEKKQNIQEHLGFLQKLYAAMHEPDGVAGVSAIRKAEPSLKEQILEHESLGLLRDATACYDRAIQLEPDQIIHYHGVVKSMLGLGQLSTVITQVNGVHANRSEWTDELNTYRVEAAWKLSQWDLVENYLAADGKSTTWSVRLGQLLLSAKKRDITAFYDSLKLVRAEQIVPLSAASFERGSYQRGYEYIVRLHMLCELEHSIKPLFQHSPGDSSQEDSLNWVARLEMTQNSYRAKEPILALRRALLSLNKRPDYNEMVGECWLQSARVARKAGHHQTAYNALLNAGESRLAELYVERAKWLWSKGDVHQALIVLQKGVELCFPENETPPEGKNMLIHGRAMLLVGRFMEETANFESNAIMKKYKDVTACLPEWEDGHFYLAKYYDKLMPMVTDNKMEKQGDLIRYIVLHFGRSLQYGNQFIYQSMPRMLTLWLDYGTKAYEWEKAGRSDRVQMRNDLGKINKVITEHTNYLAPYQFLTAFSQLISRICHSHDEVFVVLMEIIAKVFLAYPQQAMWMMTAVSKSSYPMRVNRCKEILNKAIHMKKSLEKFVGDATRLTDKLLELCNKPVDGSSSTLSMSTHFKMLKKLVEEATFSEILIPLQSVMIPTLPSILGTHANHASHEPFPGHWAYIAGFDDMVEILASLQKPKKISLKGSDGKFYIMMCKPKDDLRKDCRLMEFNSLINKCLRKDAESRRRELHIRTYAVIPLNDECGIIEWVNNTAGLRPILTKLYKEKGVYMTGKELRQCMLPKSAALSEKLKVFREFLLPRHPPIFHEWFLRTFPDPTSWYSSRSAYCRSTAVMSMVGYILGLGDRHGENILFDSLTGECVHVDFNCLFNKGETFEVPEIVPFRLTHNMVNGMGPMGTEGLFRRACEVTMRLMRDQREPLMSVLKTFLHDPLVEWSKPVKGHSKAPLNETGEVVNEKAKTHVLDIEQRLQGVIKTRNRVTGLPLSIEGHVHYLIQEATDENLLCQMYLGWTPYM
Chain of full-length human ATR protein (Q8WXE1 other isoform, or with tags, fused parts or gaps partner): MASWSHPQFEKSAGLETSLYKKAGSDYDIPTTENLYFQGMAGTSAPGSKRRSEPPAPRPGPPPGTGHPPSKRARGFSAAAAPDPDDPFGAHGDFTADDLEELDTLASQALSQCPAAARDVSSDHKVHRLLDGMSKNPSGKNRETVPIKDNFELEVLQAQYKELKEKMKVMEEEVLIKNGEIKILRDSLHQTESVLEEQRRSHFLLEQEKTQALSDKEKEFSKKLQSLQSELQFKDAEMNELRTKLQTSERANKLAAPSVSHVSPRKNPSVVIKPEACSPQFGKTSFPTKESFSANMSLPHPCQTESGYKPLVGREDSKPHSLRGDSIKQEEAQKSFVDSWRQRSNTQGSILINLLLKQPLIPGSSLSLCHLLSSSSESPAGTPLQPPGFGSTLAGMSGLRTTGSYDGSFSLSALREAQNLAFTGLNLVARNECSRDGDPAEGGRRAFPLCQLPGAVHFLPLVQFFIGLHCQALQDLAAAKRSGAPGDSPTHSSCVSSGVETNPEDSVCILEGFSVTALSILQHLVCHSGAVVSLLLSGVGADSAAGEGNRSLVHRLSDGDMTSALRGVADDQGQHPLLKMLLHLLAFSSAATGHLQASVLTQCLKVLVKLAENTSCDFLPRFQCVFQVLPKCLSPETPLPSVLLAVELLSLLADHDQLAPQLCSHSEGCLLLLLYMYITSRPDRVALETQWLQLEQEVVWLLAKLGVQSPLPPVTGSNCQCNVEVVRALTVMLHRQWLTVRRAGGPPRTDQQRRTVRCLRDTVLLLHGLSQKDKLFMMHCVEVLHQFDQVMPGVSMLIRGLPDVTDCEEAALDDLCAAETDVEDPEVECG

5-fluoro-2-{2-[(3R)-3-methylmorpholin-4-yl]-8-(1H-pyrazol-5-yl)-1,7-naphthyridin-4-yl}aniline [Example 190]
IC50 (HeLa cells; read-out: Inhibition of HeLa cell proliferation, HeLa cells, 4 days incubation, crystal violet): 334 nM

CS(=O)(=O)c1cc(N2CCOCC2)nc2c(-c3cc[nH]n3)nccc12 [Example 32]
IC50 (NCI-H460 cells): 1950 nM | IC50 [1, 2]: 84.7 nM | IC50 [1, 3]: 36.7 nM

CC(C)Oc1cc(N2CCOCC2)nc2c(-c3cc[nH]n3)nccc12 [Example 40, 4-isopropoxy-2-(morpholin-4-yl)-8-(1H-pyrazol-3-yl)-[1,7]naphthyridine]
IC50 (B16F10 cells): > 3000 nM | IC50 [1, 2]: 125 nM | IC50 [1, 3]: 99 nM

CCOP(C)(=O)c1cc(N2CCOC[C@H]2C)nc2c(-c3ccn[nH]3)nccc12 (stereo partly drawn) [Example 125, Ethyl methyl{2-[(3R)-3-methylmorpholin-4-yl]-8-(1H-pyrazol-5-yl)-1,7-naphthyridin-4-yl}phosphinate]
IC50 (DU145 cells): 764 nM | IC50 (NCI-H460 cells): 541 nM | IC50 [1, 2]: 17.2 nM | IC50 (Caco-2 cells): 2630 nM

c1cc(-c2nccc3c(N4C[C@@H]5C[C@H]4CO5)cc(N4CCOCC4)nc23)[nH]n1 [Example 185, 2-(morpholin-4-yl)-4-[(1S,4S)-2-oxa-5-azabicyclo[2.2.1]hept-5-yl]-8-(1H-pyrazol-5-yl)-1,7-naphthyridine]
IC50 (HeLa cells; Homo sapiens, HeLa, 96 h, read-out: Inhibition of HeLa cell proliferation, HeLa cells, 4 days incubation, crystal violet): > 3000 nM | IC50 [1, 2]: 852 nM

O=S1(=O)CCCN1c1cc(N2CCOCC2)nc2c(-c3ccn[nH]3)nccc12 [Example 216, 4-(1,1-dioxido-1,2-thiazolidin-2-yl)-2-(morpholin-4-yl)-8-(1H-pyrazol-5-yl)-1,7-naphthyridine]
IC50 (DU145 cells): 1330 nM | IC50 (NCI-H460 cells): 1020 nM | IC50 [1, 2]: 84.4 nM

c1cc(-c2nccc3c(N4CCCCCC4)cc(N4CCOCC4)nc23)[nH]n1 [Example 413, 4-(azepan-1-yl)-2-(morpholin-4-yl)-8-(1H-pyrazol-5-yl)-1,7-naphthyridine]
IC50 [1, 2]: 279 nM

CC1CCN(c2cc(N3CCOCC3)nc3c(-c4ccn[nH]4)nccc23)CC1 [Example 415, 4-(4-methylpiperidin-1-yl)-2-(morpholin-4-yl)-8-(1H-pyrazol-5-yl)-1,7-naphthyridine]
IC50 [1, 2]: 32.7 nM

NC(=O)C1CCCN(c2cc(N3CCOCC3)nc3c(-c4ccn[nH]4)nccc23)C1 (stereo not shown) [Example 416, 1-[2-(morpholin-4-yl)-8-(1H-pyrazol-5-yl)-1,7-naphthyridin-4-yl]piperidine-3-carboxamide]
IC50 [1, 2]: 251 nM

C1=CCN(c2cc(N3CCOCC3)nc3c(-c4ccn[nH]4)nccc23)C1 [Example 417, 4-(2,5-dihydro-1H-pyrrol-1-yl)-2-(morpholin-4-yl)-8-(1H-pyrazol-5-yl)-1,7-naphthyridine]
IC50 [1, 2]: 1070 nM

c1ccc2c(c1)CCCN2c1cc(N2CCOCC2)nc2c(-c3ccn[nH]3)nccc12 [Example 418, 4-(3,4-dihydroquinolin-1(2H)-yl)-2-(morpholin-4-yl)-8-(1H-pyrazol-5-yl)-1,7-naphthyridine]
IC50 [1, 2]: 94.1 nM

c1ccc2c(c1)CCN(c1cc(N3CCOCC3)nc3c(-c4ccn[nH]4)nccc13)C2 [Example 419, 4-(3,4-dihydroisoquinolin-2(1H)-yl)-2-(morpholin-4-yl)-8-(1H-pyrazol-5-yl)-1,7-naphthyridine]
IC50 [1, 2]: 118 nM

c1ccc2c(c1)CN(c1cc(N3CCOCC3)nc3c(-c4ccn[nH]4)nccc13)C2 [Example 420, 4-(1,3-dihydro-2H-isoindol-2-yl)-2-(morpholin-4-yl)-8-(1H-pyrazol-5-yl)-1,7-naphthyridine]
IC50 [1, 2]: 602 nM

CC(C)(C)OC(=O)[C@@H]1CCCN1c1cc(N2CCOCC2)nc2c(-c3ccn[nH]3)nccc12 [Example 422, tert-butyl 1-[2-(morpholin-4-yl)-8-(1H-pyrazol-5-yl)-1,7-naphthyridin-4-yl]-prolinate]
IC50 [1, 2]: 2240 nM

CC(C)CN(C)c1cc(N2CCOCC2)nc2c(-c3ccn[nH]3)nccc12 [Example 423, N-methyl-N-(2-methylpropyl)-2-(morpholin-4-yl)-8-(1H-pyrazol-5-yl)-1,7-naphthyridin-4-amine]
IC50 [1, 2]: 83.9 nM

CN(c1cccc(F)c1)c1cc(N2CCOCC2)nc2c(-c3ccn[nH]3)nccc12 [Example 424, N-(3-fluorophenyl)-N-methyl-2-(morpholin-4-yl)-8-(1H-pyrazol-5-yl)-1,7-naphthyridin-4-amine]
IC50 [1, 2]: 241 nM

O=S1(=O)CCC12CN(c1cc(N3CCOCC3)nc3c(-c4ccn[nH]4)nccc13)C2 [Example 425, 4-(1,1-dioxido-1-thia-6-azaspiro[3.3]hept-6-yl)-2-(morpholin-4-yl)-8-(1H-pyrazol-5-yl)-1,7-naphthyridine]
IC50 [1, 2]: 1000 nM

FC1CCCN(c2cc(N3CCOCC3)nc3c(-c4ccn[nH]4)nccc23)C1 (stereo not shown) [Example 426, 4-(3-fluoropiperidin-1-yl)-2-(morpholin-4-yl)-8-(1H-pyrazol-5-yl)-1,7-naphthyridine]
IC50 [1, 2]: 159 nM

CN(c1ccccc1F)c1cc(N2CCOCC2)nc2c(-c3ccn[nH]3)nccc12 [Example 427, N-(2-fluorophenyl)-N-methyl-2-(morpholin-4-yl)-8-(1H-pyrazol-5-yl)-1,7-naphthyridin-4-amine]
IC50 [1, 2]: 112 nM

OCC1CCN(c2cc(N3CCOCC3)nc3c(-c4ccn[nH]4)nccc23)CC1 [Example 429, {1-[2-(morpholin-4-yl)-8-(1H-pyrazol-5-yl)-1,7-naphthyridin-4-yl]piperidin-4-yl}methanol]
IC50 [1, 2]: 44.8 nM

COC1CCN(c2cc(N3CCOCC3)nc3c(-c4ccn[nH]4)nccc23)CC1 [Example 430, 4-(4-methoxypiperidin-1-yl)-2-(morpholin-4-yl)-8-(1H-pyrazol-5-yl)-1,7-naphthyridine]
IC50 [1, 2]: 61.3 nM

CN(c1ccc(F)cc1)c1cc(N2CCOCC2)nc2c(-c3ccn[nH]3)nccc12 [Example 431, N-(4-fluorophenyl)-N-methyl-2-(morpholin-4-yl)-8-(1H-pyrazol-5-yl)-1,7-naphthyridin-4-amine]
IC50 [1, 2]: 34.7 nM

CNC(=O)[C@@H]1CCCN1c1cc(N2CCOCC2)nc2c(-c3ccn[nH]3)nccc12 [Example 432, N-methyl-1-[2-(morpholin-4-yl)-8-(1H-pyrazol-5-yl)-1,7-naphthyridin-4-yl]-prolinamide]
IC50 [1, 2]: 2040 nM

CCS(=O)(=O)N1CCN(c2cc(N3CCOCC3)nc3c(-c4ccn[nH]4)nccc23)CC1 [Example 433, 4-[4-(ethylsulfonyl)piperazin-1-yl]-2-(morpholin-4-yl)-8-(1H-pyrazol-5-yl)-1,7-naphthyridine]
IC50 [1, 2]: 41.6 nM

CS(=O)(=O)N1CCN(c2cc(N3CCOCC3)nc3c(-c4ccn[nH]4)nccc23)CC1 [Example 434, 4-[4-(methylsulfonyl)piperazin-1-yl]-2-(morpholin-4-yl)-8-(1H-pyrazol-5-yl)-1,7-naphthyridine]
IC50 [1, 2]: 31.8 nM

CN(c1cc(N2CCOCC2)nc2c(-c3ccn[nH]3)nccc12)C1CC1 [Example 435, N-cyclopropyl-N-methyl-2-(morpholin-4-yl)-8-(1H-pyrazol-5-yl)-1,7-naphthyridin-4-amine]
IC50 [1, 2]: 65.1 nM

CN(CC(C)(C)C)c1cc(N2CCOCC2)nc2c(-c3ccn[nH]3)nccc12 [Example 436, N-(2,2-dimethylpropyl)-N-methyl-2-(morpholin-4-yl)-8-(1H-pyrazol-5-yl)-1,7-naphthyridin-4-amine]
IC50 [1, 2]: 24 nM
